Source: EP2607478A1, “Phenanthroline treated MSC” (Universiteit Twente, priority 2011, dated 2013)

Tested on: MSCs
Assay: Whole genome expression analysis (Illumina microarray) of treated MSCs
Type: cell-based, Human
Settings: DFO versus Bas
Method: MSCs were seeded in T25 flasks at 5000 cells/cm^2 and allowed to attach overnight in proliferation medium. […] After 48 hours, RNA was isolated as described above. From 500 ng of RNA, cRNA was synthesized using the Illumina TotalPrep RNA amplification Kit (Ambion), according to the manufacturer's protocol and the quality of RNA and cRNA was verified on a Bioanalyzer 2100 (Agilent). Microarrays were performed using Illumina HT-12 v4 expression Beadchips, according to the manufacturer's protocol. Briefly, 750 ng of cRNA was hybridized on the array overnight after which the array was washed and blocked. Then, by addition of streptavidin Cy-3 a fluorescent signal was developed. Arrays were scanned on an Illumina iScan reader and raw intensity values were background corrected in GenomeStudio (Illumina). Further data processing and statistical testing were performed with R and Bioconductor statistical software (www.bioconductor.org), using package lumi. Raw intensity values were transformed using variance stabilization and a quantile normalization was performed. A linear modelling approach with empirical Bayesian methods, as implemented in Limma package (54), was applied for differential expression analysis of the resulting probe-level expression values. A gene list, containing only those genes with an absolute 1.5-fold change between different treatments, was uploaded to Ingenuity Pathway Analysis (IPA) software and used for core analysis. Pathways or networks with a p-value of 0.05 were considered statistically significant.

Structure (SMILES): CC(=O)N(O)CCCCCNC(=O)CCC(=O)N(O)CCCCCNC(=O)CCC(=O)N(O)CCCCCN [DFO, reference compound]
- logFC(D142_ DFO - D142_BAS) KCNK2 (ProbeID ILMN_1765990): -2,07
- logFC(D142_ DFO - D142_BAS) C10orf10 (ProbeID ILMN_1767556): 3,15
- logFC(D142_ DFO - D142_BAS) BTG2 (ProbeID ILMN_1770085): 2,57
- logFC(D142_ DFO - D142_BAS) KRT34 (ProbeID ILMN_1770228): 3,81
- logFC(D142_ DFO - D142_BAS) CNN2 (ProbeID ILMN_1770290): -2,29
- logFC(D142_ DFO - D142_BAS) ANGPTL2 (ProbeID ILMN_1772612): -2,31
- logFC(D142_ DFO - D142_BAS) ZNF395 (ProbeID ILMN_1772876): 2,75
- logFC(D142_ DFO - D142_BAS) GAS1 (ProbeID ILMN_1772910): -3,12
- logFC(D142_ DFO - D142_BAS) DKK1 (ProbeID ILMN_1773337): 2,79
- logFC(D142_ DFO - D142_BAS) FBLN2 (ProbeID ILMN_1774602): -2,23
- logFC(D142_ DFO - D142_BAS) SLC2A3 (ProbeID ILMN_1775708): 2,53
- logFC(D142_ DFO - D142_BAS) KCTD11 (ProbeID ILMN_1777513): 2,12
- logFC(D142_ DFO - D142_BAS) LOC644774 (ProbeID ILMN_1779258): 2,61
- logFC(D142_ DFO - D142_BAS) CPA4 (ProbeID ILMN_1784294): 5,59
- logFC(D142_ DFO - D142_BAS) SPOCD1 (ProbeID ILMN_1784948): -2,53
- logFC(D142_ DFO - D142_BAS) PRKD1 (ProbeID ILMN_1785891): -2,05
- logFC(D142_ DFO - D142_BAS) UHRF1 (ProbeID ILMN_1786065): -2,34
- logFC(D142_ DFO - D142_BAS) CDKN1A (ProbeID ILMN_1787212): 2,78
- logFC(D142_ DFO - D142_BAS) TRIB3 (ProbeID ILMN_1787815): 3,16
- logFC(D142_ DFO - D142_BAS) COL11A1 (ProbeID ILMN_1789507): -2,55
- logFC(D142_ DFO - D142_BAS) GBE1 (ProbeID ILMN_1789702): 2,29
- logFC(D142_ DFO - D142_BAS) PRRX2 (ProbeID ILMN_1790338): -2,49
- logFC(D142_ DFO - D142_BAS) LUM (ProbeID ILMN_1790529): -3,27
- logFC(D142_ DFO - D142_BAS) CXCL12 (ProbeID ILMN_1791447): -2,57
- logFC(D142_ DFO - D142_BAS) DPYSL4 (ProbeID ILMN_1792356): 3,05
- logFC(D142_ DFO - D142_BAS) TMEM158 (ProbeID ILMN_1792455): 2,58
- logFC(D142_ DFO - D142_BAS) SERTAD1 (ProbeID ILMN_1794017): 2,25
- logFC(D142_ DFO - D142_BAS) CAMK2N1 (ProbeID ILMN_1794863): 2,65
- logFC(D142_ DFO - D142_BAS) PTP4A2 (ProbeID ILMN_1795697): 2,22
- logFC(D142_ DFO - D142_BAS) ASNS (ProbeID ILMN_1796417): 2,93
- logFC(D142_ DFO - D142_BAS) HMGCS1 (ProbeID ILMN_1797728): -2,09
- logFC(D142_ DFO - D142_BAS) PTPRF (ProbeID ILMN_1798081): 2,28
- logFC(D142_ DFO - D142_BAS) AK3L1 (ProbeID ILMN_1798249): 2,66
- logFC(D142_ DFO - D142_BAS) PLIN2 (ProbeID ILMN_1801077): 2,94
- logFC(D142_ DFO - D142_BAS) FAM162A (ProbeID ILMN_1803647): 2,50
- logFC(D142_ DFO - D142_BAS) CXCL12 (ProbeID ILMN_1803825): -2,19
- logFC(D142_ DFO - D142_BAS) VEGFA (ProbeID ILMN_1803882): 3,15
- logFC(D142_ DFO - D142_BAS) FMO3 (ProbeID ILMN_1808657): -2,46
- logFC(D142_ DFO - D142_BAS) PGF (ProbeID ILMN_1809813): 2,55
- logFC(D142_ DFO - D142_BAS) NDRG1 (ProbeID ILMN_1809931): 3,57
- logFC(D142_ DFO - D142_BAS) SFRP4 (ProbeID ILMN_1810172): -2,03
- logFC(D142_ DFO - D142_BAS) FAM129A (ProbeID ILMN_1810725): 2,88
- logFC(D142_ DFO - D142_BAS) PDE5A (ProbeID ILMN_1810836): -2,08
- logFC(D142_ DFO - D142_BAS) LOC402221 (ProbeID ILMN_1811909): -2,22
- logFC(D142_ DFO - D142_BAS) FAM20A (ProbeID ILMN_1812091): -2,11
- logFC(D142_ DFO - D142_BAS) SOX18 (ProbeID ILMN_1812968): -2,09
- logFC(D142_ DFO - D142_BAS) FKSG30 (ProbeID ILMN_1814998): -2,25
- logFC(D142_ DFO - D142_BAS) (ProbeID ILMN_1843198 (no gene name printed)): 3,25
- logFC(D142_ DFO - D142_BAS) (ProbeID ILMN_1890614 (no gene name printed)): 3,41
- logFC(D142_ DFO - D142_BAS) SNORD13 (ProbeID ILMN_1892403): 2,51
- logFC(D142_ DFO - D142_BAS) GADD45A (ProbeID ILMN_2052208): 2,60
- logFC(D142_ DFO - D142_BAS) LDLR (ProbeID ILMN_2053415): -2,03
- logFC(D142_ DFO - D142_BAS) PTGS2 (ProbeID ILMN_2054297): 2,25
- logFC(D142_ DFO - D142_BAS) GAS1 (ProbeID ILMN_2062701): -2,07
- logFC(D142_ DFO - D142_BAS) PMAIP1 (ProbeID ILMN_2098446): 2,11
- logFC(D142_ DFO - D142_BAS) GOLGA8B (ProbeID ILMN_2103547): 2,12
- logFC(D142_ DFO - D142_BAS) EEF1A2 (ProbeID ILMN_2108735): 2,72
- logFC(D142_ DFO - D142_BAS) CTHRC1 (ProbeID ILMN_2117508): -2,46
- logFC(D142_ DFO - D142_BAS) HBEGF (ProbeID ILMN_2121408): 2,13
- logFC(D142_ DFO - D142_BAS) IGFBP5 (ProbeID ILMN_2132982): 2,53
- logFC(D142_ DFO - D142_BAS) PLIN2 (ProbeID ILMN_2138765): 2,74
- logFC(D142_ DFO - D142_BAS) HIST2H2AA3 (ProbeID ILMN_2144426): 2,07
- logFC(D142_ DFO - D142_BAS) GBP1 (ProbeID ILMN_2148785): -2,41
- logFC(D142_ DFO - D142_BAS) SERPINB2 (ProbeID ILMN_2150851): 3,06
- logFC(D142_ DFO - D142_BAS) SERPINB2 (ProbeID ILMN_2150856): 3,04
- logFC(D142_ DFO - D142_BAS) ALDH1B1 (ProbeID ILMN_2150894): -2,55
- logFC(D142_ DFO - D142_BAS) LUM (ProbeID ILMN_2167805): -2,01
- logFC(D142_ DFO - D142_BAS) PFKFB3 (ProbeID ILMN_2186061): 4,03
- logFC(D142_ DFO - D142_BAS) RRAD (ProbeID ILMN_2186137): 3,12
- logFC(D142_ DFO - D142_BAS) GDF15 (ProbeID ILMN_2188862): 6,31
- logFC(D142_ DFO - D142_BAS) HSPB7 (ProbeID ILMN_2200836): -2,12
- logFC(D142_ DFO - D142_BAS) TP53INP1 (ProbeID ILMN_2214197): 2,62
- logFC(D142_ DFO - D142_BAS) PGK1 (ProbeID ILMN_2216852): 2,75
- logFC(D142_ DFO - D142_BAS) KIFC1 (ProbeID ILMN_2222008): -2,05
- logFC(D142_ DFO - D142_BAS) BEX1 (ProbeID ILMN_2234697): -3,45
- logFC(D142_ DFO - D142_BAS) LEPR (ProbeID ILMN_2234956): -2,33
- logFC(D142_ DFO - D142_BAS) UBE2C (ProbeID ILMN_2301083): -2,01
- logFC(D142_ DFO - D142_BAS) VCAM1 (ProbeID ILMN_2307903): -3,16
- logFC(D142_ DFO - D142_BAS) MAFF (ProbeID ILMN_2322375): 2,07
- logFC(D142_ DFO - D142_BAS) PORCN (ProbeID ILMN_2337058): 2,69
- logFC(D142_ DFO - D142_BAS) AK3L1 (ProbeID ILMN_2338038): 2,28
- logFC(D142_ DFO - D142_BAS) FMO3 (ProbeID ILMN_2344283): -2,30
- logFC(D142_ DFO - D142_BAS) MKNK2 (ProbeID ILMN_2347068): 2,45
- logFC(D142_ DFO - D142_BAS) BIRC5 (ProbeID ILMN_2349459): -2,14
- logFC(D142_ DFO - D142_BAS) VLDLR (ProbeID ILMN_2361862): 3,17
- logFC(D142_ DFO - D142_BAS) ATF3 (ProbeID ILMN_2374865): 3,23
- logFC(D142_ DFO - D142_BAS) VEGFA (ProbeID ILMN_2375879): 3,40
- logFC(D142_ DFO - D142_BAS) KCNK2 (ProbeID ILMN_2376953): -2,07
- logFC(D142_ DFO - D142_BAS) ANGPTL4 (ProbeID ILMN_2386444): 2,64
- logFC(D142_ DFO - D142_BAS) IGFBP1 (ProbeID ILMN_2387385): 2,45
- logFC(D142_ DFO - D142_BAS) MTHFD2 (ProbeID ILMN_2405521): 2,84
- logFC(D142_ DFO - D142_BAS) PODXL (ProbeID ILMN_2413158): 2,92
- logFC(D142_ DFO - D142_BAS) LOC100133609 (ProbeID ILMN_3237270): 2,49
- logFC(D142_ DFO - D142_BAS) BEND5 (ProbeID ILMN_3237448): 2,61
- logFC(D142_ DFO - D142_BAS) HIST2H2AA4 (ProbeID ILMN_3242900): 2,11
- logFC(D142_ DFO - D142_BAS) LOC644350 (ProbeID ILMN_3248701): 2,60
- logFC(D142_ DFO - D142_BAS) LOC728934 (ProbeID ILMN_3248758): 2,47
- logFC(D142_ DFO - D142_BAS) LOC644237 (ProbeID ILMN_3283772): 2,17
- logFC(D142_ DFO - D142_BAS) LOC729779 (ProbeID ILMN_3305273): 3,12
